Patent US7514419B2, “Phosphorus-containing thyromimetics” (Metabasis Therapeutics, Inc., priority 2003, dated 2009)

Tests used:
[1] = test system: ZDF rats; experiment: Hepatic triglyceride content and steatosis in ZDF rats, oral 28 days; assay type: in vivo, rat
Method: In other experiments, Compound 7 was orally administered to ZDF rats for 28 days. Liver triglycerides were analyzed as described above. Total liver triglycerides were reduced in the treated animals 42% in the 2.5 mg/kg/d group. […] The hepatic steatosis is a well known and described phenomenon for the ZDF rat, and therefore not attributable to vehicle treatment.

[2] = test system: normal rats maintained on a cholesterol-containing diet; experiment: Continuous infusion study in rats on a cholesterol-containing diet; settings: continuous infusion 1 mg/kg/day
Method: Screening for thyromimetic activity was performed in normal rats maintained on a cholesterol-containing diet.

[3] = test system: ZDF rats; experiment: Circulating TSH, ZDF rats, 28 days; assay type: in vivo, rat; settings: 50 mg/kg/d for 28 days
Excerpt: (§1) Another concern with synthetic thyromimetics is the suppression of the endogenous thyroid axis. Thyroid homeostasis is maintained by the action of thyroid releasing hormone (TRH) and thyroid stimulating hormone (TSH). […] Although this particular side effect has been noted, it has typically been treated with less concern than the cardiac safety issues. […] Therefore previous investigators have measured TSH levels when testing synthetic thyromimetics and have used a 30% decrease of TSH as the denominator in their therapeutic index calculations. […] Therefore, both compounds suppress TSH as doses lower than that required to decrease circulating cholesterol. […] However, 0.2 mg/kg/d of Compound 18 in 28 day treated ZDF rats, decreased TSH levels greater than 90%.

[4] = test system: cholesterol-fed rat; experiment: Subacute study in cholesterol-fed rats, IP once-a-day for seven days: serum cholesterol, heart weight, heart mGPDH
Method: The cholesterol-fed rat is an animal model of hypercholesterolemia generated by feeding the animals a diet with high cholesterol content.
Methods: Rats were maintained on a diet containing 1.5% cholesterol and 0.5% cholic acid for 2 weeks prior to initiation of treatment. Serum cholesterol values were assessed and the animals randomized into groups for treatment.

[5] = test system: mice; experiment: Circulating TSH, mice, 77 days; assay type: in vivo, mouse; settings: 10 mg/kg/d for 77 days
Excerpt: as §1

[6] = test system: Normal rats; experiment: Hepatic triglyceride content in normal rats infused for 7 days; assay type: in vivo, rat; settings: normal rats chronically infused for 7 days
Method: Normal rats were chronically infused with Compound 7 for 7 days. Liver triglycerides were analyzed following lipid extraction by the Bligh Dyer method (Bligh EG and Dyer WJ, A rapid method of total lipid extraction and purification. Can J Med Sci. 1959 (August); 37(8):911-7, incorporated herein by reference). Total triglycerides were analyzed in the liver extracts by an enzymatic assay (Thermo Electron Corporation). Total lipid was normalized to initial liver weight and triglyceride content was normalized to liver weight. […] There was a 4% reduction in liver triglycerides for this group and the results were not statistically significant.

[7] = test system: ZDF rats; settings: ZDF, rat, in vivo, po, 28 days
Method: Compound 18 was administered at doses up to 5 mg/kg/d. Compound cis-13-1 was administered at doses up to 50 mg/kg/d. We reasoned that the ZDF rat, as a metabolically challenged animal model, would be more sensitive to the potential adverse cardiac effects of thyromimetics than a normal, cholesterol-fed rat. At sacrifice, heart rate, and the first derivative of left ventricular pressure (LV dP/dt) were measured with a Millar catheter inserted into the left ventricle.

[8] = test system: cholesterol-fed rat; settings: ED15 for heart rate compared to ED50 for cholesterol lowering; cited from earlier work
[9] = test system: cholesterol-fed rats; experiment: Circulating TSH, cholesterol-fed rats, 7 days; assay type: in vivo, rat; settings: cholesterol-fed rats treated for 7 days; 30% decrease of TSH
Excerpt: as §1

[10] = test system: Sprague Dawley (SD) rat; experiment: Cardiovascular activity in the Sprague Dawley rat, 7 days oral; assay type: in vivo; settings: SD rats, Compound 18 1 mg/kg, Compound cis-13-1 1-50 mg/kg/day
Excerpt: Method: […] The control group (n=6) was given vehicle only. […] On the 7th day after the start of dosing, animals were anesthetized with Isofluorane and the left ventricle cannulated with a high fidelity catheter tip transducer via the right carotid artery. Left ventricular pressure, its first derivative (LVdP/dt), lead I ECG, and heart rate (HR) triggered off the ECG waveform, were digitally recorded. LV dP/dt is a well accepted measure of ionotropic state. Systolic and diastolic aortic pressures were measured by retracting the catheter into the proximal aorta.

[11] = test system: cholesterol fed rats; experiment: Subacute study in cholesterol fed rats, PO once a day for seven days: cholesterol reduction, heart weight; assay type: in vivo, rat; settings: 1 mg/kg/day PO once a day for seven days
Method: Methods: […] Compound 13-1-cis and Compound 18 were administered PO once a day for seven days. Serum TSH is measured using an enzyme immunoassay (EIA) kit designed for rat TSH (Amersham Pharmacia Biotech, Arlington Heights, Ill.). Expression levels of liver genes (e.g., the LDL-receptor, apoB, cpt-1, spot14 and apoAI) and heart genes ([…]2, HCN2,Kvl.5, MHCα, MHCβ, Alpha1c) are quantified by Northern blot analysis or by RT-PCR. […] Oligonucleotides specific for the complementary gene sequences are used to make ^32P-labeled probes (Multiprime DNA labeling systems, Amersham Pharmacia Biotech). Following hybridization of the probes to the nylon membranes, radioactivity is assessed on a blue film (Eastman Kodak Co,), and the resulting image quantified using the appropriate software. RT-PCR is performed using an iCycler instrument (Biorad) using appropriate primers by means of standard methodology [[…] et al. (2000) Life Sciences 66: 1683-94]. […] The activities of PEPCK and glucose 6-phosphatase in liver are measured by means of direct enzymatic assays of homogenized liver tissue as described by Andrikopoulos S et al. (1993) Diabetes 42: 1731-1736. Alternatively, expression levels of the corresponding genes are determined by Northern blot analysis or RT-PCR as described above.

**Q.** Which results are given for `Cc1cc(OCP(=O)(O)O)cc(C)c1Cc1ccc(O)c(C(C)C)c1` [Compound 7, [3,5-dimethyl-4-(4′-hydroxy-3′-iso-propylbenzyl)phenoxy]-methylphosphonic acid]?
**A.** microvesicular steatosis (H&E liver sections) [1]: dose dependent reduction in the microvesicular steatosis; total cholesterol at day 7 [2]: cholesterol lowering effects; total cholesterol at day 14 [2]: cholesterol lowering effects; cardiovascular parameters (heart rate, LV dP/dt, blood pressure) ([2]; day 7 or day 14): no changes in any of the cardiovascular parameters; TSH vs vehicle [3]: no statistically significant difference from vehicle; Cardiac GPDH activity ([4]; Compound 17 at 1 mg/kg/day, compound 7 only at 100 mg/kg): trend towards increased heart GPDH activity; therapeutic window (efficacy vs toxicity) ([4]; cholesterol lowering vs cardiac hypertrophy, induction of heart GPDH): 10-to 100 fold; TSH [5]: no decrease in TSH was observed; decrease in hepatic triglyceride content [6]: 64%

**Q.** With `CC(C)c1cc(Oc2c(Cl)cc(CC(=O)O)cc2Cl)ccc1O` [Compound 18, 3,5-dichloro-4-[4′-hydroxy-3′-iso-propylphenoxy]-benzeneacetic acid, reference compound] as the compound, how does the “TI for LV dP/dt” value [7] read?
**A.** The value was 0.15.

**Q.** What about the “therapeutic index with respect to heart rate” value [7] of the same compound?
**A.** The value was 0.4.

**Q.** And the “therapeutic index (TI) with respect to heart rate increases” value [8]?
**A.** The value was 40.

**Q.** And the “therapeutic index of TSH levels” value [9]?
**A.** Its value is 0.4.

**Q.** And the “HR, LV dP/dt and aortic pressure compared to vehicle” value [10]?
**A.** The value was “marked and statistically significant increases”.

**Q.** And the serum cholesterol [11]?
**A.** Its serum cholesterol is “significantly decreased serum cholesterol”.
